Laboratory results as given in US5395847A, “Imidazolyl-alkenoic acids” (SmithKline Beecham Corporation, priority 1994, dated 1995).
pIC50: −log10 of the molar value.

Experiments:
human AT-1 receptors = target: T1, human AT-1 receptors (Homo sapiens, UniProt P30556); assay: Radioligand binding assay, 125I-angiotensin II displacement; conditions: human AT-1 receptors expressed in mouse cell line L h AT-1-D6; 80 pM 125I-angiotensin II; 1 hour at 25° C.; read-out: IC50 (concentration of antagonist needed to displace 50% of the total specifically bound angiotensin II)
T1 construct: expressed in transfected cells
T1 sequence (P30556 1-359): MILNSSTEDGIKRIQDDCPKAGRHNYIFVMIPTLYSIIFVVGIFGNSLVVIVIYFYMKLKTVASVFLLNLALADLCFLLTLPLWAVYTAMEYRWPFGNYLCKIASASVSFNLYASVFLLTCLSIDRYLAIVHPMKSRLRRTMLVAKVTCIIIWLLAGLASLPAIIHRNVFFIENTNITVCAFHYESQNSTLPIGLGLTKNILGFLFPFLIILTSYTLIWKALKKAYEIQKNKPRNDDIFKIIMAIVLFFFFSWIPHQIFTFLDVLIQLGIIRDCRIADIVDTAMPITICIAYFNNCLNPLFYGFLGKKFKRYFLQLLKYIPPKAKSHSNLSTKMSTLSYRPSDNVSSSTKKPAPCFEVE
Description: The radioligand binding assay is a modification of a method previously described in detail (Gunther et al., Circ. Res. 47:278, 1980). A stable clone of human AT-1 receptors expressed in the mouse cell line L h AT-1-D6 is used. Cells are incubated in Tris buffer with 80 pM of 125I-angiotensin II with or without angiotensin II antagonists for 1 hour at 25° C. The incubation is terminated by rapid filtration and receptor bound ^125 I-angiotensin II trapped on the filter is quantitated with a gamma counter. The potency of angiotensin II antagonists is expressed as the IC50 which is the concentration of antagonist needed to displace 50% of the total specifically bound angiotensin II.

[1] = system: pressor response to angiotensin II; assay: Inhibition of pressor response to angiotensin II in conscious rats; type: in vivo; conditions: Rattus norvegicus, po, orally, change in mean arterial pressure in response to intravenous angiotensin II, read-out: IC50 (dose of compound needed to produce 50% inhibition of the control response to angiotensin II)
Description: Rats are prepared with indwelling femoral arterial and venous catheters and a stomach tube (Gellai et al., Kidney Int. 15:419, 1979). Two to three days following surgery the rats are placed in a restrainer and blood pressure is continuously monitored from the arterial catheter with a pressure transducer and recorded on a polygraph. The change in mean arterial pressure in response to intravenous injections of […] angiotensin II is compared at various time points prior to and following the administration of the compounds intravenously or orally at doses of 0.1 to 300 mg/k g. The dose of compound needed to produce 50% inhibition of the control response to angiotensin II (IC50) is used to estimate the potency of the compounds.

## Br.CCCCc1ncc(/C=C(\Cc2cccs2)C(=O)Oc2ccc3c(c2)CCC3)n1Cc1ccc(C(=O)O)c2ccccc12 [Example 1, E-α-[[2-n-butyl-1-[(4-carboxy-1-naphthaleneyl)methyl]-1H-imidazol-5-yl]methylene]-2-thiophenepropanoic Acid Indan-5-yl Ester, Hydrobromide]
Human AT-1 receptors
  pIC50: 6.47
[1]
  ED50: 0.053 mg/kg
